Consider one compound from paper PMC8582576, “New Therapeutic Strategy for Overcoming Multidrug Resistance in Cancer Cells with Pyrazolo[3,4-d]pyrimidine Tyrosine Kinase Inhibitors” (Cancers, 2021).

SMILES strings stand for the structures. “And” between values parts separate entries of the source, which are not always exact repeats. Equal values may be shown once.

The term IC50 denotes the point on the concentration scale where inhibition reaches its midpoint.

The subject of one data set is NCI-H460. The data set can be described thus: MTT cell viability assay, NCI-H460. The data set is classed as cell-based. The following applies: Homo sapiens, 72 h, read-out: Decrease in cell viability, IC50. Here is the method:
(§1) The metabolic activity of viable cells was measured by MTT assay. Cells grown in 25 cm^2 tissue flasks were trypsinized, seeded into flat-bottomed 96-well tissue culture plates, and incubated overnight. Subsequently, the cells were treated with increasing concentrations of Si306, pro-Si306, and dasatinib (1–25 μM), as well as with Si221 and pro-Si221 (2.5–50 μM) for 72 h. In addition, the combined effects of Si306, pro-Si306, and pro-Si221with DOX as well as with PTX were studied in NCI-H460/R and DLD1-TxR cells, respectively. In simultaneous treatments that lasted 72 h in NCI-H460/R and DLD1-TxR cells, two concentrations of Si306, pro-Si306, and pro-Si221 (0.2 μM and 0.5 μM) were combined with increasing concentrations of DOX and PTX (0.1–2 μM). After treatment, MTT was added to each well at a final concentration of 0.2 mg/mL for 3 h. Then, formazan produced in cells with intact/viable mitochondria was dissolved in 200 μL of DMSO, and the absorbance was measured at 570 nm on a Multiskan Sky Microplate Spectrophotometer (ThermoFisher Scientific, United States). The IC50 value is defined as the concentration of a drug that decreases cell viability by 50% and was calculated by nonlinear regression analysis using GraphPad Prism 6.0 for Windows (La Jolla, CA, USA). Relative reversal was calculated as a relation between the IC50 values of DOX and PTX alone obtained in NCI-H460/R and DLD1-TxR cells, respectively and the IC50 values of DOX and PTX in combination with Pro-Si306 and Pro-Si221.

Another data set concerns DLD1. Briefly: MTT cell viability assay, DLD1. The data set is classed as cell-based. The conditions noted are these: Homo sapiens, DLD-1, 72 h, read-out: Decrease in cell viability, IC50. The method, then: as §1
Data set [1] relates to P-gp expression. Briefly: Flow cytometric analysis of P-gp expression in DLD1-TxR cells. The data set is classed as cell-based, human. The following applies: 48-h treatment, Si306, pro-Si306 5 and 10 µM, pro-Si221 1 and 2 µM, TQ 5 and 10 nM. The method, then: (§2) The P-gp expression level in NCI-H460/R and DLD1-TxR was measured by flow cytometry. […] After 48 h, cells were collected by trypsinization, washed in PBS, and then directly immuno stained by FITC-conjugated anti-P-gp antibody according to the manufacturer’s protocol.
A general note: A flow cytometer gives signals particle by particle.

For data set [2], the target named is T1, P-gp (Homo sapiens, UniProt P08183). Briefly: P-gp ATPase activity assay (Pgp-Glo). Type of data set: biochemical. More on the design: purchased Promega, Madison, WI, USA. The following applies: 5 µM and 20 µM; verapamil positive control. The method, then: P-gp function depends on ATP hydrolysis energy, and compounds that interact with P-gp can stimulate or inhibit its ATPase activity. P-gp ATPase activity is usually stimulated by its substrates. The Pgp-GloTM assay system detects a compound’s effect on recombinant human P-gp in a cell membrane fraction. P-gp ATPase activity was measured using the luminescent Pgp-Glo^TM assay kit according to manufacturer’s instructions. Briefly, ATP was first incubated with P-gp; then, the P-gp ATPase reaction was stopped, and the remaining un-metabolized ATP was detected as a luciferase-generated luminescent signal. P-gp-dependent decreases in luminescence reflect ATP consumption by P-gp; thus, the greater the decrease in signal, the higher the P-gp activity. […] Na3VO4 is a noncompetitive inhibitor of P-gp ATPase activity. The difference in the luminescent signal, expressed as relative light units (RLU), between Na3VO4-treated samples and untreated samples represents the basal P-gp ATPase activity (ΔRLU basal). The difference in the luminescent signal between Na3VO4-treated samples and samples treated with the tested compounds represents P-gp ATPase activity in the presence of the tested compounds. […] The luminescence of samples treated with 5 μM and 20 μM of Si306, pro-Si306, and pro-Si221 was measured using a luminometer microplate reader (CHAMELEONTMV, Hidex, Turku, Finland).
T1 sequence (P08183 whole entry): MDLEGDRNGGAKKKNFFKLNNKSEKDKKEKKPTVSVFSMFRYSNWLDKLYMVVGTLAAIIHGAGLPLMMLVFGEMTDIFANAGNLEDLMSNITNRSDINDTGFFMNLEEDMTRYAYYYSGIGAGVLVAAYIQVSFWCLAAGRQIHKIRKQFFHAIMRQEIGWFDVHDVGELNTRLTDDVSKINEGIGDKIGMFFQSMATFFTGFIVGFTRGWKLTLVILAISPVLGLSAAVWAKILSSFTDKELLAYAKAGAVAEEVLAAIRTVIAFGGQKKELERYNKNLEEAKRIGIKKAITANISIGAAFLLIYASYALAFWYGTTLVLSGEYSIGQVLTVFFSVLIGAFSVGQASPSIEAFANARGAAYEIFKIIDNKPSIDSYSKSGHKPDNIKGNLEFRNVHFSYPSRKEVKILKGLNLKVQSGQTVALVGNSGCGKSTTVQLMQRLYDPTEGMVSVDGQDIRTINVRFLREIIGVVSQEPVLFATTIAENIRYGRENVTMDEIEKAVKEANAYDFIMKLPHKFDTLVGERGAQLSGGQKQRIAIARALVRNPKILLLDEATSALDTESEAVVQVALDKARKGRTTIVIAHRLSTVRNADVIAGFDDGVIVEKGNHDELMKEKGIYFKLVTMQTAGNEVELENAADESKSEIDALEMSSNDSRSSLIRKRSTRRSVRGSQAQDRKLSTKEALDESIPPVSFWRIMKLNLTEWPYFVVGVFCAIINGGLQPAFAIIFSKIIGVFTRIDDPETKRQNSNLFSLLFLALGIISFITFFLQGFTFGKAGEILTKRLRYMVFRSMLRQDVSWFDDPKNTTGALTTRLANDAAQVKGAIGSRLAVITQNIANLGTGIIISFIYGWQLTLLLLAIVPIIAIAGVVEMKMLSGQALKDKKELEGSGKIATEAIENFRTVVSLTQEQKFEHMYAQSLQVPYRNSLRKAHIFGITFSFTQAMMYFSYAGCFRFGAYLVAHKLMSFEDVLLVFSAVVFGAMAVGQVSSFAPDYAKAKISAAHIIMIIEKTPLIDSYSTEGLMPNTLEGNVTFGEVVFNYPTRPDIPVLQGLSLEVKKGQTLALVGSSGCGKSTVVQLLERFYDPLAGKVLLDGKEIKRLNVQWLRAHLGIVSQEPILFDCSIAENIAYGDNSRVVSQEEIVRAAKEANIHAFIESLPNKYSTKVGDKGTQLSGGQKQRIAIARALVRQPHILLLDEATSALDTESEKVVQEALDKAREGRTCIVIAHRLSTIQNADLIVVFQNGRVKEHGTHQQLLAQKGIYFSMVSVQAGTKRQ

Data set [3] concerns P-gp expression. Briefly: Flow cytometric analysis of P-gp expression in NCI-H460/R cells. The data set is classed as cell-based, human. The following applies: 48-h treatment, Si306, pro-Si306 5 and 10 µM, pro-Si221 1 and 2 µM, TQ 5 and 10 nM. The method, then:
as §2

Data set [4] addresses T1, P-gp. The data set can be described thus: Rho 123 accumulation assay (P-gp activity) in NCI-H460/R cells. The following applies: NCI-H460/R.
Protocol: (§3) The accumulation of fluorescent P-gp substrate Rho 123 was analyzed by flow cytometry. The intensity of fluorescence was proportional to Rho 123 accumulation in the cell. […] NCI-H460 and DLD1 cells were used as a positive control for Rho 123 accumulation. All cell lines were seeded in adherent 6-well plates and grown overnight. In simultaneous treatment that lasted 30 min, 5 μM Rho 123 was applied along with 10 μM of Si306, pro-Si306, Si221, pro-Si221, dasatinib, and Dex-VER. […] Samples were incubated for 30 min at 37 °C in 5% CO2. […] At the end of the accumulation period, the cells were trypsinized, pelleted by centrifugation, washed with PBS, and placed in ice-cold PBS. The samples were kept on ice in the dark until analysis on a CyFlow Space Partec flow cytometer (Sysmex Partec GmbH, Görlitz, Germany). The fluorescence of Rho 123 was detected on fluorescence channel 1 (FL1-H) at 530 nm. Three independent experiments were performed for each experimental setting. A minimum of 10,000 events was assayed for each sample, and the obtained results were analyzed using Summit Dako Software (ver. 4.3, Fort Collins, CO, USA).
Data set [5] deals with T1, P-gp. Briefly: Rho 123 accumulation assay (P-gp activity) in DLD1-TxR cells. The following applies: DLD1-TxR.
Protocol: as §3
Data set [6] relates to DLD1-TxR. The data set can be described thus: MTT assay, reversal of PTX resistance in DLD1-TxR cells. The data set is classed as cell-based, human. The conditions noted are these: IC50 PTX alone / IC50 in combination. Here is the method: as §1
The test system of data set [7] is NCI-H460/R. Briefly: MTT assay, reversal of DOX resistance in NCI-H460/R cells. The data set is classed as cell-based, human. The conditions noted are these: IC50 DOX alone / IC50 in combination. Here is the method: as §1
The test system of data set [8] is DLD1-TxR. Briefly: MTT cell viability assay, DLD1-TxR. Type of data set: cell-based. The following applies: Homo sapiens, DLD1-TxR (MDR), 72 h, read-out: Decrease in cell viability, IC50. The method, then:
as §1

Data set [9] relates to NCI-H460, NCI-H460/R, DLD1, DLD1-TxR. The data set can be described thus: MTT cell viability assay, two sensitive/MDR cancer cell line pairs. The data set is classed as cell-based. The following applies: Homo sapiens, summary over the four cell lines, 72 h. The method, then: as §1
For data set [10], the system named is NCI-H460/R. The data set can be described thus: MTT cell viability assay, NCI-H460/R. The data set is classed as cell-based, human. Here is the method: as §1
For orientation: Tetrazolium dyes change colour on reduction, which living cells bring about.

Where [11] appears, read: IC50 for P-gp inhibition, Rho123 accumulation, 30 min.
[12] abbreviates: 10 µM, 30-min treatment, compared with Dex-VER.

For `CN1CCN(CCOC(=O)N(c2cccc(Br)c2)c2nc(SCCN3CCOCC3)nc3c2cnn3CC(Cl)c2ccccc2)CC1` (stereo not shown) [Pro-Si306], the concentration for half-maximal inhibition (IC50) in the data set with NCI-H460 is 2400 ± 376 nM; in the data set on DLD1, 2450 ± 346 nM; against P-gp [4] (setting [11]), 6200 nM and 6170 nM; against P-gp [5] (setting [11]), 3000 nM and 2950 nM; in the data set with DLD1-TxR [8], 1870 ± 128 nM; in data set [9] it was under 10000 nM. Moreover, the IC50 with NCI-H460/R [10] (Homo sapiens, NCI-H460/R (MDR), MTT, 72 h, read-out: Decrease in cell viability, IC50) amounted to 897 ± 102 nM. The “effect on P-gp expression (protein level)” value is given as “tendency to decrease the P-gp expression” with P-gp expression [1] and “less pronounced effect on the increase in P-gp expression” in the data set on P-gp expression [3]. Besides, the “effect on ATPase activity of P-gp” value on P-gp [2] was “potential to inhibit the ATPase activity of P-gp”. In addition, the “P-gp inhibition by Rho 123 intracellular accumulation” value at P-gp [4] (setting [12]) and on P-gp [5] (setting [12]) was “considerably more potent than that observed with Dex-VER” in each case. The “kinetics of P-gp inhibition (Rho123 accumulation)” value at P-gp [4] (24-, 48-, 96-, 168-h treatments, 10 µM pro-Si306, pro-Si221, 5 and 10 nM TQ) is on record as “reached stability after 96 h”; on P-gp [5] (24-, 48-, 96-, 168-h treatments, 10 µM pro-Si306, 1 and 2 µM pro-Si221, 5 and 10 nM TQ) it was “reached stability after 96 h”. The “Relative Reversal of PTX resistance” value in the data set on DLD1-TxR [6] (SFK inhibitor 0.2 µM) worked out at 1.5; with DLD1-TxR [6] (SFK inhibitor 0.5 µM), 2.5. Further, the “Relative Reversal of DOX resistance” value turned out to be 3.2 in the data set on NCI-H460/R [7] (SFK inhibitor 0.2 µM) and 10.2 in the data set with NCI-H460/R [7] (SFK inhibitor 0.5 µM). Further, the “fold lower IC50 in MDR NCI-H460/R than in sensitive NCI-H460 cells” value with NCI-H460/R [10] (NCI-H460/R vs NCI-H460, MTT) is given as “more than 2 fold”.
